Source: article PMC11855355, “In-Situ Purification of Non-Ribosomal Peptide Synthetases Assembly Line for Structural and Biochemical Studies” (International Journal of Molecular Sciences, 2025)

Biological target: T1, PvdL (Pseudomonas putida, UniProt Q88F56)
T1 construct: monomer
Assay: LC/HRMS of product N-myristoyl-L-glutamic acid after base hydrolysis
Format: biochemical
Conditions: 1 uM PvdL, 200 uM myristic acid, 1 mM L-Glu, 5 mM ATP, 10 mM MgCl2, pH 7.6, 25 °C; first two modules; product covalent on PvdL

T1 sequence (Q88F56 1-4317): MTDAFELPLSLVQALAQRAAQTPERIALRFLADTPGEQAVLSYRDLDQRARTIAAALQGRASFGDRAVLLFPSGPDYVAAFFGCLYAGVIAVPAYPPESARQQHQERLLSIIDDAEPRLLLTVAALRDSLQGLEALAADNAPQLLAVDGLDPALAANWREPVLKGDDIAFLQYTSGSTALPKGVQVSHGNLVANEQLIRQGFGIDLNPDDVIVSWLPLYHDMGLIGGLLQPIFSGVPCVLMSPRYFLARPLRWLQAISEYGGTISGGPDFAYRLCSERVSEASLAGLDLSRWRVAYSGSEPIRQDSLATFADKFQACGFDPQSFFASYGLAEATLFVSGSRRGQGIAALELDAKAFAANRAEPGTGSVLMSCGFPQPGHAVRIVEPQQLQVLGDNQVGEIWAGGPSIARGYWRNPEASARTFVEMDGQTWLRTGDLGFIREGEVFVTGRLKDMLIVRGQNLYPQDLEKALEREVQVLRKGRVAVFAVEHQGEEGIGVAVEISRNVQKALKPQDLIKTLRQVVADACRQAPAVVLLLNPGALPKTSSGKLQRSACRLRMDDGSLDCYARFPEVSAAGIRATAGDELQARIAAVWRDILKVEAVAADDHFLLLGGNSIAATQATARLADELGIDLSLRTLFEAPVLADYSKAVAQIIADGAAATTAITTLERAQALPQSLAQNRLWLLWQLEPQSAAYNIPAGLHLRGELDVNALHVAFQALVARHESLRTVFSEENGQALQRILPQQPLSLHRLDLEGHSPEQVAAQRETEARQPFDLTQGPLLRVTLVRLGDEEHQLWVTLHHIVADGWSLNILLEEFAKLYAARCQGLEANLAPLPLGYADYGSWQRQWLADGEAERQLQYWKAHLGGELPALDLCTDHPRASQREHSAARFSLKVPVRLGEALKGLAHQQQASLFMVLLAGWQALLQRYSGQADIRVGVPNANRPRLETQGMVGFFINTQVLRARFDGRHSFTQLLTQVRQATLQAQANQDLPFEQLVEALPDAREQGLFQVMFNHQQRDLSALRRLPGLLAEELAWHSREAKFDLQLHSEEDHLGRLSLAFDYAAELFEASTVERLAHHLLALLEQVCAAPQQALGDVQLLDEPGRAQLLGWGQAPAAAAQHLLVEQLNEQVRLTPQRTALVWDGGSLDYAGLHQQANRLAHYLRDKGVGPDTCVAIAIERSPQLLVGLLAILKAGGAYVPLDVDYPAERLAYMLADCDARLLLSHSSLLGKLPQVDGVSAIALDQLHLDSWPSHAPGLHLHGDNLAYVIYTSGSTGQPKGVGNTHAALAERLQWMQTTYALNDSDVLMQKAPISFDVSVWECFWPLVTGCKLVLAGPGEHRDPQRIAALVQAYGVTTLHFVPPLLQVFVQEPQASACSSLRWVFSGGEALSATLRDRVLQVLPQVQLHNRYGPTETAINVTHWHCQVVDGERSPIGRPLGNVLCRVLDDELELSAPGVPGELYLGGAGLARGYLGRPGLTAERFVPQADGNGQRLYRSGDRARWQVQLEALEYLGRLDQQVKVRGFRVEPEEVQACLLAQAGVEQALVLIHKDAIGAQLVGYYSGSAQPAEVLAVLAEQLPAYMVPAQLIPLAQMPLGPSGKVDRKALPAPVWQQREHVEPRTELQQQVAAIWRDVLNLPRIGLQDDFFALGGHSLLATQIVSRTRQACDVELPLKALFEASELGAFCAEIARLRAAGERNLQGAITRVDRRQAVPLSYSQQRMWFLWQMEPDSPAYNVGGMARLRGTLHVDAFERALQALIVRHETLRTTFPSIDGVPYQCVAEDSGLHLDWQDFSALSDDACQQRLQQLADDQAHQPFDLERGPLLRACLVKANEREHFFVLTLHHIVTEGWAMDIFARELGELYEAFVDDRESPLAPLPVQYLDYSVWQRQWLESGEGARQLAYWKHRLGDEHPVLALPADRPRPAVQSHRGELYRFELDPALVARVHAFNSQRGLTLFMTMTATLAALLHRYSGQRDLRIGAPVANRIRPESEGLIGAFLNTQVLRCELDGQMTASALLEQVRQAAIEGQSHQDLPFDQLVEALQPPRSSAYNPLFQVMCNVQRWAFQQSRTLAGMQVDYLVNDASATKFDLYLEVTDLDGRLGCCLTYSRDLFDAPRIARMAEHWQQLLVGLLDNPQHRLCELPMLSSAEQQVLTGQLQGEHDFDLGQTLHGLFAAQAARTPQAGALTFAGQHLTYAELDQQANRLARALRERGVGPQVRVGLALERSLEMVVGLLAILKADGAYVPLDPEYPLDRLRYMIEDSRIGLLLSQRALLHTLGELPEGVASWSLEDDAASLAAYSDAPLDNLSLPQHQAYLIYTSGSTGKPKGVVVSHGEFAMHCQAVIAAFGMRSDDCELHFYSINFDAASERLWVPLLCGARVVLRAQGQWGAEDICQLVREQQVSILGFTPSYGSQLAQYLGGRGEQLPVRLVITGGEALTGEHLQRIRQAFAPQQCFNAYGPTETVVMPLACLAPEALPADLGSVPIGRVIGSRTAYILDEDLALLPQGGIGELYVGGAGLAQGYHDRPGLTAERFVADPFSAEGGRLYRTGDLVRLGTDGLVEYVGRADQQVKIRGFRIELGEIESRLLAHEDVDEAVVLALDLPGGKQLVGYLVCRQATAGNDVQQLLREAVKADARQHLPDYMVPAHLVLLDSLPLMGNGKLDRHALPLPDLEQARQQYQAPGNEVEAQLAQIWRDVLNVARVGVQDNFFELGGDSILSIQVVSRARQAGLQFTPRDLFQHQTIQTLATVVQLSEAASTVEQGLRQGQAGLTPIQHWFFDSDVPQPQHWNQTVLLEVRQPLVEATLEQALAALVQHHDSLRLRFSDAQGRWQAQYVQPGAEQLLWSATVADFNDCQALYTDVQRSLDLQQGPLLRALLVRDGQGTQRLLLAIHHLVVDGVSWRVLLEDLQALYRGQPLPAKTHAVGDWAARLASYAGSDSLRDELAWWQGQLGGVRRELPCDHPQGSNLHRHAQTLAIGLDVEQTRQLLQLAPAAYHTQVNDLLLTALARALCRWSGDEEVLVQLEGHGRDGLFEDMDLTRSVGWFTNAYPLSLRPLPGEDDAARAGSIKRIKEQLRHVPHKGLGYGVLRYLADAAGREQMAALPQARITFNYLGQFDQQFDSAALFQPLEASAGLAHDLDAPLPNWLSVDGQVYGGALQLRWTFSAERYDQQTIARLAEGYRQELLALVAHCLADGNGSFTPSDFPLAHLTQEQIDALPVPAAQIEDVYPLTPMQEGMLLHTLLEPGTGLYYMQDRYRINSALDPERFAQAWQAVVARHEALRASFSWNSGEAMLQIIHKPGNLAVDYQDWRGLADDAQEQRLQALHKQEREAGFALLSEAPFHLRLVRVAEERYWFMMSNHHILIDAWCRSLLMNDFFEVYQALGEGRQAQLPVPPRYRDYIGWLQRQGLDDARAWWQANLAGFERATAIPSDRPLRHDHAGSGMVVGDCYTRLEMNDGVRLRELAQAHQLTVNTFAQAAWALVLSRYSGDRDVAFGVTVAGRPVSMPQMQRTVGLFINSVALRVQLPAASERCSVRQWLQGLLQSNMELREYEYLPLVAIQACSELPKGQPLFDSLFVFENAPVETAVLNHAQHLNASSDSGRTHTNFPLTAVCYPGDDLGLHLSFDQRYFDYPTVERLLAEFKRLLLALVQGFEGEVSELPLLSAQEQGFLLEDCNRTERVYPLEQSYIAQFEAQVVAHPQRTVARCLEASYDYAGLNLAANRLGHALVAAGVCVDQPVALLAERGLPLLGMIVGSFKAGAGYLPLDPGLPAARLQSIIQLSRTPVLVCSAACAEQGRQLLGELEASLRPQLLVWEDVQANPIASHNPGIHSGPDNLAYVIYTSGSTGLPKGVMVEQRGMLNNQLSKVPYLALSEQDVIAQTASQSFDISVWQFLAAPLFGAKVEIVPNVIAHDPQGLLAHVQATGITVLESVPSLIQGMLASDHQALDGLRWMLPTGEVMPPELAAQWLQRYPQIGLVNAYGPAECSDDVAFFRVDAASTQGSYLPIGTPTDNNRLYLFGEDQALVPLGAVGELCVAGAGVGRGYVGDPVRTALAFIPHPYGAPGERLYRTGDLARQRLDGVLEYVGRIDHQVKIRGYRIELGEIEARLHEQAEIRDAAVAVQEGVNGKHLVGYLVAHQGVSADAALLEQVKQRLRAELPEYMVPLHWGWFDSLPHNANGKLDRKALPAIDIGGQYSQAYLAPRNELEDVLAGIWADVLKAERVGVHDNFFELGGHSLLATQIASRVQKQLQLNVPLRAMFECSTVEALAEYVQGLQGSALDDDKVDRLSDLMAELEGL

SMILES: N[C@@H](CCC(=O)O)C(=O)O [L-Glu]
- LC/HRMS of product N-myristoyl-L-glutamic acid after base hydrolysis: ATP-energy-dependent activation and condensation of myristic acid and glutamic acid
